Test results from patent US9617276B2, “Compounds and methods for treating AIDS and HIV infections” (priority 2009, dated 2017).
Read-outs that look alike come from different tables or passages of the source.

What was measured:
[1] = tested on: HIV-2EHO; assay: drug susceptibility, MT-2 cells, MTT assay, HIV-2EHO; assay type: cell-based; conditions: Human immunodeficiency virus 2, MT2, read-out: EC50 (μM) for HIV-2EHO
Description: (§1) All assays were performed in duplicate or triplicate. […] All assays were performed in duplicate or triplicate.
(§2) Each selectivity index denotes a ratio of CC50 to EC50 against HIV-1LAI N.D., not done.

[2] = tested on: HIV-2ROD; assay: drug susceptibility, MT-2 cells, MTT assay, HIV-2ROD; assay type: cell-based; conditions: Human immunodeficiency virus 2, MT2, read-out: EC50 (μM) for HIV-2ROD
Description: as §1, §2

[3] = tested on: HIV-1APV5μM; assay: microbe, parasite or virus in culture; assay type: cell-based; conditions: for EC50: Human immunodeficiency virus 1, MT4, read-out: EC50 (μM), HIV-1APV5 μM
Description: (§3) The susceptibility of HIV-1LAI and primary HIV-1 isolates to various drugs were determined as described previously (Koh et al. 2003 Antimicrob Agents Chemother 47:3123-9). Briefly, MT-2 cells (2×10^4/ml) were exposed to 100 50% tissue culture infectious doses (TCID50S) of HIV-1LAI, in the presence or absence of various concentrations of drugs in 96-well microculture plates and were incubated at 37° C. for 7 days. After 100 μl of the medium was removed from each well, 3-(4,5-dimetylthiazol-2-yl)-2,5-diphenyltetrazolium bromide (MTT) solution (10 μl, 7.5 mg/ml in phosphate-buffered saline) was added to each well in the plate, followed by incubation at 37° C. for 3 h. […] All assays were performed in duplicate or triplicate. To determine the susceptibility of primary HIV-1 isolates to drugs, phytohemagglutinin-activated peripheral blood mononuclear cells (PHA-PBMCs; 106/ml) were exposed to 50 TCID50S of each. The target cells were exposed to HIV-1104pre or drug-resistant HIV-1 in the presence or absence of various concentrations of drugs and were incubated for 7 days. Upon the conclusion of the culture, the amounts of p24 Gag protein in the supernatants were determined using a fully automated chemiluminescent enzyme immunoassay system (Lumipulse F; Fujirebio Inc., Tokyo, Japan) (Maeda et al. 2001 J Biol Chem 276:35194-200). To determine the drug susceptibility of certain laboratory HIV-1 strains, MT-4 cells were used as target cells. In brief, MT-4 cells (10^5/ml) were exposed to 100 TCID50S of drug-resistant HIV-1 strains in the presence or absence of various concentrations of drugs and on day 7 of culture, the supernatant was harvested and the amounts of p24 Gag protein were determined. […] All assays were performed in duplicate or triplicate.
(§4) Numbers in parentheses represent n-fold changes in EC50s for each isolate compared to the EC50s for wild-type HIV-1NL4-3.

[4] = tested on: HIV-1LPV5μM; assay: microbe, parasite or virus in culture; assay type: cell-based; conditions: for EC50: Human immunodeficiency virus 1, MT4, read-out: EC50 (μM), HIV-1LPV5 μM
Description: as §3, §4

[5] = tested on: multidrug-resistant clinical HIV-1 isolates (HIV-1MDR); assay: microbe, parasite or virus in culture; assay type: cell-based
Description: as §3
(§5) These clinical strains contained 9 to 14 amino acid substitutions in the protease-encoding region, which have reportedly been associated with HIV-1 resistance to various PIs.
(§6) Amino acid substitutions identified in the protease-encoding region compared to the consensus type B sequence cited from the Los Alamos database include L63P in HIV-1ERS104pre; L10I, K14R, L33I, M36I, M46I, F53I, K55R, I62V, L63P, A71V, G73S, V82A, L90M, and I93L in HIV-1MDR/B; L10I, I15V, K20R, L24I, M36I, M46L, I54V, I62V, L63P, K70Q, V82A, and L89M in HIV-1MDR/C; L10I, V11I, T12E, I15V, L19I, R41K, M46L, L63P, A71T, V82A, and L90M in HIV-1MDR/G; L10I, K14R, R41K, M46L, I54V, L63P, A71V, V82A, L90M, I93L in HIV-1MDR/TM; L10I, K43T, M46L, I54V, L63P, A71V, V82A, L90M, and Q92K in HIV-1MDR/MM; L10I, L24I, I33F, E35D, M36I, N37S, M46L, I54V, R57K, I62V, L63P, A71V, G73S, and V82A in HIV-1MDR/JSL. HIV-1ERS104pre served as a source of wild-type HIV-1. EC50s were determined by using PHA-PBMs as target cells, and inhibition of p24 Gag protein production by each drug was used as an end point. Numbers in parentheses represent n-fold changes of EC50s for each isolate compared to EC50s for wild-type HIV-1ERS104pre.

[6] = tested on: HIV-1246-1μM; assay: microbe, parasite or virus in culture; assay type: cell-based, HIV-1; conditions: Human immunodeficiency virus 1, MT4, read-out: EC50 (μM), HIV-1246-1 μM
Description: (§7) Briefly, MT-2 cells (2×10^4/ml) were exposed to 100 50% tissue culture infectious doses (TCID50S) of HIV-1LAI, in the presence or absence of various concentrations of drugs in 96-well microculture plates and were incubated at 37° C. for 7 days. After 100 μl of the medium was removed from each well, 3-(4,5-dimetylthiazol-2-yl)-2,5-diphenyltetrazolium bromide (MTT) solution (10 μl, 7.5 mg/ml in phosphate-buffered saline) was added to each well in the plate, followed by incubation at 37° C. for 3 h. […] All assays were performed in duplicate or triplicate. […] To determine the drug susceptibility of certain laboratory HIV-1 strains, MT-4 cells were used as target cells. In brief, MT-4 cells (10^5/ml) were exposed to 100 TCID50S of drug-resistant HIV-1 strains in the presence or absence of various concentrations of drugs and on day 7 of culture, the supernatant was harvested and the amounts of p24 Gag protein were determined. […] All assays were performed in duplicate or triplicate.
as §4

[7] = tested on: HIV-1396-1μM; assay: microbe, parasite or virus in culture; assay type: cell-based, HIV-1; conditions: Human immunodeficiency virus 1, MT4, read-out: EC50 (μM), HIV-1396-1 μM
Description: as §7, §4

[8] = tested on: HIV-1ERS104pre (wild-type); assay: p24 Gag inhibition in PHA-PBMCs, HIV-1ERS104pre; assay type: cell-based; conditions: mean ± 1 SD
Description: as §3, §5, §6

[9] = tested on: HIV-1MDR/B; assay type: cell-based; conditions: for EC50 (μM), HIV-1MDR/B (SI): PHA-PBMCs, p24 Gag; for n-fold change of EC50, HIV-1MDR/B: compared to wild-type HIV-1ERS104pre
Description: as §3, §5, §6

[10] = tested on: HIV-1MDR/C; assay type: cell-based; conditions: for EC50 (μM), HIV-1MDR/C (SI): PHA-PBMCs, p24 Gag; for n-fold change of EC50, HIV-1MDR/C: compared to wild-type HIV-1ERS104pre
Description: as §3, §5, §6

[11] = tested on: HIV-1MDR/G; assay type: cell-based; conditions: for EC50 (μM), HIV-1MDR/G (SI): PHA-PBMCs, p24 Gag; for n-fold change of EC50, HIV-1MDR/G: compared to wild-type HIV-1ERS104pre
Description: as §3, §5, §6

[12] = tested on: HIV-1MDR/TM; assay type: cell-based; conditions: for EC50 (μM), HIV-1MDR/TM (SI): PHA-PBMCs, p24 Gag; for n-fold change of EC50, HIV-1MDR/TM: compared to wild-type HIV-1ERS104pre
Description: as §3, §5, §6

[13] = tested on: HIV-1MDR/JSL; assay: microbe, parasite or virus in culture; assay type: cell-based; conditions: for EC50: Human immunodeficiency virus 1, read-out: EC50 (μM), HIV-1MDR/JSL (NSI); for n-fold change of EC50, HIV-1MDR/JSL: compared to wild-type HIV-1ERS104pre
Description: as §3, §5, §6

[14] = tested on: HIV-1MDR/MM; assay: microbe, parasite or virus in culture; assay type: cell-based; conditions: for EC50: Human immunodeficiency virus 1, read-out: EC50 (μM), HIV-1MDR/MM (NSI); for n-fold change of EC50, HIV-1MDR/MM: compared to wild-type HIV-1ERS104pre
Description: as §3, §5, §6

[15] = tested on: HIV-1NL4-3; assay: p24 Gag inhibition in MT-4 cells, HIV-1NL4-3; assay type: cell-based
Description: as §1

[16] = tested on: HIV-1AZV5μM; assay: microbe, parasite or virus in culture; assay type: cell-based; conditions: for EC50: Human immunodeficiency virus 1, MT4, read-out: EC50 (μM), HIV-1AZV5 μM
Description: as §3, §4

[17] = tested on: HIV-1NFV5μM; assay: microbe, parasite or virus in culture; assay type: cell-based; conditions: for EC50: Human immunodeficiency virus 1, MT4, read-out: EC50 (μM), HIV-1NPV5 μM
Description: as §3, §4

[18] = tested on: HIV-1SQV5μM; assay: microbe, parasite or virus in culture; assay type: cell-based; conditions: for EC50: Human immunodeficiency virus 1, MT4, read-out: EC50 (μM), HIV-1SQV5 μM
Description: as §3, §4

[19] = tested on: HIV-1216-P50; assay: microbe, parasite or virus in culture; assay type: cell-based, HIV-1; conditions: Human immunodeficiency virus 1, MT4, read-out: EC50 (μM), HIV-1216-p50
Description: as §7, §4

[20] = compared to wild-type HIV-1NL4-3

Compound	EC50 [3]	EC50 [4]	EC50 [6]	EC50 [7]	EC50 (μM), HIV-1ERS104pre (wild-type SI) [8]	EC50 (μM), HIV-1MDR/B (SI) [9]	n-fold change of EC50, HIV-1MDR/B [9]	EC50 (μM), HIV-1MDR/C (SI) [10]	n-fold change of EC50, HIV-1MDR/C [10]	EC50 (μM), HIV-1MDR/G (SI) [11]	n-fold change of EC50, HIV-1MDR/G [11]	EC50 (μM), HIV-1MDR/TM (SI) [12]	n-fold change of EC50, HIV-1MDR/TM [12]	EC50 [13]	n-fold change of EC50, HIV-1MDR/JSL [13]	EC50 [14]	n-fold change of EC50, HIV-1MDR/MM [14]	EC50 [16]	EC50 [17]	EC50 [18]	further results
CC(C)CN(C[C@@H](O)[C@H](Cc1ccccc1)NC(=O)O[C@H]1CO[C@H]2OCC[C@H]21)S(=O)(=O)c1ccc(N)cc1 [DRV, Darunavir]	0.29 ± 0.0018 µM	0.025 ± 0.0066 µM	0.029 ± 0.001 µM	0.016 ± 0.001 µM																	EC50 [1]: 0.008 ± 0.007 µM; EC50 [2]: 0.01 ± 0.004 µM; EC50 ([5]; Human immunodeficiency virus 1, read-out: greatest EC50 value against the clinical isolates): 27 nM
CC(C)(C)NC(=O)[C@@H]1CN(Cc2cccnc2)CCN1C[C@@H](O)C[C@@H](Cc1ccccc1)C(=O)N[C@H]1c2ccccc2C[C@H]1O [IDV, Indinavir]					0.043 ± 0.004 µM	> 1 µM	> 23	> 1 µM	> 23	0.34 ± 0.14 µM	(5)	> 1 µM	> 23	> 1 µM	> 23	> 1 µM	> 23				EC50 ([5]; Human immunodeficiency virus 1, read-out: EC50 with multidrug-resistant clinical HIV-1 isolates (mostly)): > 1000 nM
Cc1c(O)cccc1C(=O)N[C@@H](CSc1ccccc1)[C@H](O)CN1C[C@H]2CCCC[C@H]2C[C@H]1C(=O)NC(C)(C)C [NFV, Nelfinavir]	0.3 ± 0.03 µM	0.32 ± 0.12 µM	0.29 ± 0.006 µM	0.22 ± 0.02 µM														> 1 µM	> 1 µM	0.51 ± 0.081 µM	EC50 ([15]; Human immunodeficiency virus 1, MT4, Table 9, mean ± 1 SD, read-out: EC50 (μM), HIV-1NL4-3): 0.04 ± 0.007 µM; EC50 [19]: 0.13 ± 0.04 µM
CC(C)(C)NC(=O)[C@@H]1C[C@@H]2CCCC[C@@H]2CN1C[C@@H](O)[C@H](Cc1ccccc1)NC(=O)[C@H](CC(N)=O)NC(=O)c1ccc2ccccc2n1 [SQV, Saquinavir]	0.026 ± 0.01 µM	0.028 ± 0.007 µM			0.008 ± 0.005 µM	0.27 ± 0.073 µM	(34)	0.032 ± 0.002 µM	(11)	0.030 ± 0.002 µM	(4)	0.26 ± 0.04 µM	(33)	0.3 ± 0.02 µM	(37)	0.19 ± 0.05 µM	(24)	0.031 ± 0.005 µM	0.003 ± 0.002 µM	> 1 µM	EC50 ([15]; Human immunodeficiency virus 1, MT4, read-out: EC50 (μM), HIV-1NL4-3, Table 7, mean ± 1 SD): 0.005 ± 0.002 µM; n-fold change in EC50, HIV-1APV5 μM [3, 20]: (5); n-fold change in EC50, HIV-1AZV5 μM [16, 20]: (6); n-fold change in EC50, HIV-1LPV5 μM [4, 20]: (6); n-fold change in EC50, HIV-1NPV5 μM [17, 20]: (1); n-fold change in EC50, HIV-1SQV5 μM [18, 20]: > 200
